# Patent publication US8685984B2, “Methods for treating HCV” (AbbVie Inc., priority 2011, dated 2014)
# System: HCV genotype 1a replicon cell line
# Assay: EC50 in HCV genotype 1a replicon cell line
# Type: cell-based
# Settings: Hepatitis C virus, read-out: EC50 value for the HCV genotype 1a replicon cell line
row,Compound,EC50
1,"Cc1cnc(C(=O)N[C@H]2CCCCC/C=C\[C@@H]3C[C@@]3(C(=O)NS(=O)(=O)C3CC3)NC(=O)[C@@H]3C[C@@H](Oc4nc5ccccc5c5ccccc45)CN3C2=O)cn1 [Compound 1, (2R,6S,13aS,14aR,16aS,Z)—N-(cyclopropylsulfonyl)-6-(5-methylpyrazine-2-carboxamido)-5,16-dioxo-2-(phenanthridin-6-yloxy)-1,2,3,5,6,7,8,9,10,11,13a,14,14a,15,16,16a-hexadecahydrocyclopropa[e]pyrrolo[1,2-a][1,4]diazacyclopentadecine-14a-carboxamide]",0.9 nM
2,"COc1c(-c2ccc3cc(NS(C)(=O)=O)ccc3c2)cc(-n2ccc(=O)[nH]c2=O)cc1C(C)(C)C [Compound 2, N-(6-(3-tert-butyl-5-(2,4-dioxo-3,4-dihydropyrimidin-1(2H)-yl)-2-methoxyphenyl)naphthalen-2-yl)methanesulfonamide]",7.7 nM
3,COC(=O)N[C@H](C(=O)N1CCC[C@H]1C(=O)Nc1ccc([C@@H]2CC[C@@H](c3ccc(NC(=O)[C@@H]4CCCN4C(=O)[C@@H](NC(=O)OC)C(C)C)cc3)N2c2ccc(C(C)(C)C)cc2)cc1)C(C)C [Compound 4],0.01 nM
